16 compounds from patent US20230406849A1, “KRAS INHIBITORS FOR TREATMENT OF CANCERS” (TYLIGAND BIOSCIENCE (SHANGHAI) LIMITED, priority 2020, published 2023) can be followed below.

Like-named read-outs stand apart in the source and are kept apart here.

In data set [1] the test system is human non-small cell lung cancer cells NCI-H358 with KRas G12C mutation. The data set is described as follows: NCI-H358 cell proliferation, CellTiter-Glo Luminescent Cell Viability Assay. The settings on record: for inhibition at 1 µM: 1 μM compound, read-out: Inhibition rate % (1 μM). The class given is cell-based. From the text: This assay verified the inhibitory activity of the compounds of the present disclosure on the proliferation of human non-small cell lung cancer cells NCI-H358 with KRas G12C mutation by using Promega's CellTiter-Glo® Luminescent Cell Viability Assay kit.
[Test materials]: NCI-H358 cell line (Cell Resource Center, IBMS, CAMS/PUMC, Item number: 3111C0001CCC000470), 96-well transparent flat-bottomed black-walled cell culture plate (Greiner Bio one, Cat #655096), RPMI-1640 Medium (GE, Cat #SH30809.01), Fetal Bovine Serum FBS (Thermo Fisher, Cat #10099-141), CellTiter-Glo® Luminescent Cell Viability Assay Kit (Promega, Cat #G7573), PBS (Solarbio, Cat #P1020), Trypsin (Thermo Fisher, Cat #25200072), DMSO (Sigma, Cat #D2650), Methyl cellulose (SIGMA, Cat #9004-67-5).
[Experimental procedure]: 180 μL of cell suspension (RPMI1640 solution with 10% FBS and 1% methyl cellulose) was charged to a 96-well cell culture plate at a density of 1500 cells/well. A control group containing no cells, no compounds and only 3D complete medium (RPMI 1640 solution with 1! Methyl cellulose and 10% FBS) (i.e. culture medium control) and a control group containing no compounds but cells (i.e. cell control) were set. AMG510 or the following reference compounds were used as positive controls. The cell plate was placed in a cell incubator overnight. A 10-fold drug solution (RPMI1640 solution with 10% FBS and 1% DMSO) was prepared at a concentration of 10 μM, and 20 μL of this solution was added to each well of the 96-well plate seeded with cells, so that the final concentration of the compounds in each well was 1 μM, and the DMSO concentration […] replicate wells were set up for each compound. The solutions of AMG510 or the following reference compounds were prepared in the same way and added to the positive control wells. The cell plate was placed in a cell incubator and cultured for 120 h. For endpoint detection, the CellTiter-Glo reagent was melted, and the cell plate was moved to room temperature to equilibrate for 30 minutes, added with 100 µL of CellTiter-Glo to each well, and shaken on an orbital shaker for 5 minutes to fully lyse the cells. The plate was kept at room temperature for 20 minutes to stabilize the luminescence signal, and the luminescence value of each well was full wavelength scanned with a multi-functional microplate reader (Molecular Devices, Spectramax M3 microplate reader).
[Test samples] The compounds of Examples 1-39, and reference compound A
[Data Analysis] The following formula was used to calculate the cell inhibition rate under the action of each concentration of the compounds:
Inhibition rate %=[1−(LumDrug to be tested−LumCulture medium control)/(LumCell control−LUMCulture medium control)]×100%
IC50 values were calculated using GraphPad Prism 7.0 software, nonlinear Sigmoidal regression was used to fit the data to obtain a dose-response curve.
In general terms: ATP-based viability assays read luminescence as a measure of living cells.

Data set [2] can be described thus: Cassette pharmacokinetic experiment in rats (IV). The class given is in vivo. The settings on record: rat, plasma, 1 mg/kg, male SD rats, tail vein IV, 1 mg/mL each compound at 1 mL/kg. From the text:
2.1 Pharmacokinetic Properties of Some Compounds of the Present Disclosure Evaluated by Cassette Pharmacokinetic Experiments in Rats.
[Test materials]: Male SD rats, age: 6-8 weeks, body weight 220-250 g, purchased from Zhaoyan (Suzhou) New Drug Research Center Co., Ltd.; Tolbutamide (Aladdin, Cat #H1401054); Sulfobutyl-(Captisol, Shandong Binzhou Zhiyuan Biological Technology Co., Ltd, Cat #20191013); Propylene glycol (15)-stearate (Solutol, Meilun Bio, Cat #50206A); DMSO (Vetec Company, Cat #WXBD0293V); acetonitrile (Sigma-Aldrich, Cat #WXBD1744V); Methanol (Sigma-Aldrich, Cat #WXBD2831V).
[Experimental procedure]: The compound combination was prepared in a solvent of 5% DMSO/10% Solutol/85% (20% Captisol), and the final concentration of each compound was 1 mg/mL. The SD rats were treated with the compound preparation in 1 mL/kg by tail vein IV injection, and blood samples were collected at the time points of 5 min, 15 min, 30 min, 1 h, 2 h, 4 h, 8 h, and 24 h via external jugular vein puncture, centrifuged at low temperature for 20 minutes to collect plasma samples, which were stored at −80° C. until analysis.
[Sample analysis]: Establishing LC-MS/MS compound analysis method
Standard curve preparation: 20 μL of lmg/mL DMSO stock solution for each compound was aspirated and transferred to […] of 50% methanol working solution, and the resulting solution was serially diluted to obtain a standard curve working solution with concentrations of 20000, 10000, 5000, 1000, 500, 100, 50, 20 and […]. Then 5 µL of this standard curve working solution was mixed with 45 μL rat blank plasma to give a standard curve with concentrations of 2000, 1000, 500, 100, 50, 10, 2 and 1 ng/mL for quantification of unknown samples.
Sample pretreatment: 50 μL of unknown plasma sample or standard curve sample was mixed with 250 μL of acetonitrile containing internal standard as a precipitant. The plasma protein was precipitated, extracted for test compounds, and centrifuged at low temperature for 20 minutes. The supernatant was taken, mixed with 0.1% formic acid aqueous solution, and 5 μL of the resulting solution was aspirated for blood concentration analysis.
[Data processing]: A standard curve was plotted using mass spectrometry software, to quantify unknown samples, and pharmacokinetic parameters are calculated by Winnonlin 8.2 using the drug concentration of unknown samples at each time point.

On to `C=CC(=O)N1CCN(c2c(C#N)c(-c3ccnn3CCN(C)C)nc3c(F)c(-c4ccc(F)c5sc(N)nc45)c(Cl)cc23)C[C@H]1C` [Example 7, 4-((R)-4-acryloyl-3-methylpiperazin-1-yl)-7-(2-amino-7-fluorobenzo[d]thiazol-4-yl)-6-chloro-2-(1-(2-(dimethylamino)ethyl)-1H-pyrazol-5-yl)-8-fluoroquinoline-3-carbonitrile], for which, in data set [1] (120 h), the inhibition (as a rule, how much of the control response was suppressed) at 1 µM came out at 90%. Also, the IC50 (usually the concentration that gives 50% inhibition) in data set [1] (120 h, read-out: IC50) was 260 nM.
`C=CC(=O)N1CCN(c2c(C#N)c(-c3ccnn3C)nc3c(F)c(-c4ccc(F)c5sc(N)nc45)c(Cl)cc23)CC1` [Example 14, 4-(4-Acryloylpiperazin-1-yl)-7-(2-amino-7-fluorobenzo[d]thiazol-4-yl)-6-chloro-8-fluoro-2-(1-methyl-1H-pyrazol-5-yl)quinoline-3-carbonitrile]: in data set [2], the AUC(0-t) (as a rule, the area under the concentration-time curve up to a stated or last time point) was found to be 1100 ng·h/mL; the clearance – broadly, a measure of how efficiently the substance is removed, as volume per time – is 15.1 mL/min/kg; the half-life (commonly the time in which the quantity being followed falls by half) was 1.58 h.
With `C=CC(=O)N1CCN(c2c(C#N)cnc3c(F)c(-c4c(C)ccc5[nH]ncc45)c(Cl)cc23)CC1` [Ref. Comp. B, reference compound], the IC50 in data set [1] (120 h, read-out: IC50) was 350 nM.
Consider `C=CC(=O)N1CCN(c2c(C#N)c(N)nc3c(F)c(-c4ccc(F)c5sc(N)nc45)c(Cl)cc23)CC1` [Example 20, 4-(4-Acryloylpiperazin-1-yl)-2-amino-7-(2-amino-7-fluorobenzo[d]thiazol-4-yl)-6-chloro-8-fluoroquinoline-3-carbonitrile], for which, in data set [1] (read-out: IC50 value), the IC50 was less than 50 nM.
With `C=CC(=O)N1CCN(c2c(C#N)c(C)nc3c(F)c(-c4ccc(F)c5sc(N)nc45)c(Cl)cc23)CC1` [Example 17, 4-(4-Acryloylpiperazin-1-yl)-7-(2-amino-7-fluorobenzo[d]thiazol-4-yl)-6-chloro-8-fluoro-2-methylquinoline-3-carbonitrile], in data set [1] (read-out: IC50 value), the IC50 is less than 50 nM.
For the compound `C=C(F)C(=O)N1CCN(c2c(C#N)cnc3c(F)c(-c4ccc(F)c5sc(N)nc45)c(Cl)cc23)CC1` [Example 16, 7-(2-Amino-7-fluorobenzo[d]thiazol-4-yl)-6-chloro-8-fluoro-4-(4-(2-fluoroaryloxy)piperazin-1-yl)quinoline-3-carbonitrile], in data set [2], the AUC(0-t) was 2790 ng·h/mL, the clearance was found to be 5.93 mL/min/kg and the half-life was 3.5 h.
Consider `C=CC(=O)N1CCN(c2c(C#N)c(-c3ccnn3CCN(C)C)nc3c(F)c(-c4ccc(F)c5sc(N)nc45)c(Cl)cc23)CC1` [Example 4, 4-(4-Acryloylpiperazin-1-yl)-7-(2-amino-7-fluorobenzo[d]thiazol-4-yl)-6-chloro-2-(1-(2-(dimethylamino)ethyl)-1H-pyrazol-5-yl)-8-fluoroquinoline-3-carbonitrile], for which, in data set [1] (120 h), the inhibition at 1 µM came out at 94.8%. In addition, the IC50 in data set [1] (120 h, read-out: IC50) worked out at 53 nM.
Take `C=CC(=O)N1CCN(c2c(C#N)c(-c3cccc(C(C)N(C)C)c3)nc3c(F)c(-c4ccc(F)c5sc(N)nc45)c(Cl)cc23)CC1` (stereo not drawn) [Example 5, 4-(4-Acryloylpiperazin-1-yl)-7-(2-amino-7-fluorobenzo[d]thiazol-4-yl)-6-chloro-2-(3-(1-(dimethylamino)ethyl)phenyl)-8-fluoroquinoline-3-carbonitrile]: in data set [1] (120 h), the inhibition at 1 µM turned out to be 94.9%. Moreover, the IC50 in data set [1] (120 h, read-out: IC50) is 7 nM; in data set [1] (read-out: IC50 value) it was less than 20 nM.
As for `C=CC(=O)N1CCN(c2c(C#N)c(N)nc3c(F)c(-c4cccc5sc(N)nc45)c(Cl)cc23)CC1` [Example 33, 4-(4-Acryloylpiperazin-1-yl)-2-amino-7-(2-aminobenzo[d]thiazol-4-yl)-6-chloro-8-fluoroquinoline-3-carbonitrile], in data set [1] (read-out: IC50 value), the IC50 is less than 50 nM.
With `C=CC(=O)N1CCN(c2c(C#N)cnc3c(OC)c(-c4ccc(F)c5sc(N)nc45)c(Cl)cc23)CC1` [Example 39, 4-(4-Acryloylpiperazin-1-yl)-7-(2-amino-7-fluorobenzo[d]thiazol-4-yl)-6-chloro-8-methoxy quinoline-3-carbonitrile], in data set [1] (read-out: IC50 value), the IC50 is less than 20 nM.
With `C=CC(=O)N1CCN(c2c(C#N)c(-c3cccc(CN(C)C)c3)nc3c(F)c(-c4ccc(F)c5sc(N)nc45)c(Cl)cc23)CC1` [Example 3, 4-(4-Acryloylpiperazin-1-yl)-7-(2-amino-7-fluorobenzo[d]thiazol-4-yl)-6-chloro-2-(3-((dimethylamino)methyl)phenyl)-8-fluoroquinoline-3-carbonitrile], the inhibition at 1 µM in data set [1] (120 h) worked out at 97.7%. Further, the half-inhibitory concentration (IC50) is 9 nM in data set [1] (120 h, read-out: IC50) and less than 20 nM in data set [1] (read-out: IC50 value).
As to `C=CC(=O)N1CCN(c2c(C#N)c(NC(C)=O)nc3c(F)c(-c4ccc(F)c5sc(N)nc45)c(Cl)cc23)CC1` [Example 37, N-(4-(4-acryloylpiperazin-1-yl)-7-(2-amino-7-fluorobenzo[d]thiazol-4-yl)-6-chloro-3-cyano-8-fluoroquinolin-2-yl)acetamide], in data set [1] (read-out: IC50 value), the IC50 is less than 50 nM.
On to `C=CC(=O)N1CCN(c2c(C#N)c(-c3cn(C)nc3C)nc3c(F)c(-c4ccc(F)c5sc(N)nc45)c(Cl)cc23)CC1` [Example 15, 4-(4-Acryloylpiperazin-1-yl)-7-(2-amino-7-fluorobenzo[d]thiazol-4-yl)-6-chloro-2-(1,3-dimethyl-1H-pyrazol-4-yl)-8-fluoroquinoline-3-carbonitrile], for which, in data set [2], the AUC(0-t) is 717 ng·h/mL, the clearance worked out at 23.3 mL/min/kg and the half-life was 1.03 h.
`C=CC(=O)N1CCN(c2c(C#N)c(N)nc3c(F)c(-c4c(F)ccc5sc(N)nc45)c(Cl)cc23)CC1` [Example 34, 4-(4-Acryloylpiperazin-1-yl)-2-amino-7-(2-amino-5-fluorobenzo[d]thiazol-4-yl)-6-chloro-8-fluoroquinoline-3-carbonitrile]: the IC50 in data set [1] (read-out: IC50 value) is less than 50 nM.
As to `C=CC(=O)N1CCN(c2c(C#N)c(C)nc3c(F)c(-c4ccc(F)c5sc(N)nc45)c(Cl)cc23)C[C@@H]1CC#N` [Example 32], the IC50 in data set [1] (read-out: IC50 value) was less than 50 nM.
Turning to `C=CC(=O)N1CCN(c2c(C#N)c(-c3cccc(CN(C)C)c3)nc3c(F)c(-c4ccc(F)c5sc(N)nc45)c(Cl)cc23)C[C@H]1C` [Example 6, 4-((R)-4-acryloyl-3-methylpiperazin-1-yl)-7-(2-amino-7-fluorobenzo[d]thiazol-4-yl)-6-chloro-2-(3-((dimethylamino)methyl)phenyl)-8-fluoroquinoline-3-carbonitrile], the inhibition at 1 µM in data set [1] (120 h) was 95%. For the same compound, the IC50 in data set [1] (120 h, read-out: IC50) is 17 nM; in data set [1] (read-out: IC50 value) it was less than 20 nM.
